Measurements from patent US12268674B2, “Mi-2β inhibitor as an immunotherapy agent” (BioVentures, LLC, priority 2021, dated 2025).
Like-named read-outs stand apart in the source and are kept apart here.

Key:
MCM6 = biological target: T1, MCM6 (Homo sapiens, UniProt P33991+Q14566); assay: ATPase profile (ATP acyl phosphate probe); assay type: binding; conditions: read-out: Inhibition (%) by 1 μM Z36-MP5
T1 construct: to get the native cell lysate; endogenous in cells; host or cells: A375

EPRS = biological target: T2, EPRS (Homo sapiens, UniProt P07814); assay: ATPase profile (ATP acyl phosphate probe); assay type: binding; conditions: SEQ ID NO: 77, ATP BS
T2 construct: endogenous in cells; host or cells: A375 cell lysate

ABCC2 = biological target: T3, ABCC2 (Homo sapiens, UniProt Q92887); assay: ATPase profile (ATP acyl phosphate probe); assay type: binding; conditions: ABCC2, SEQ ID NO: 8, ATP BS
T3 construct: to get the native cell lysate; host or cells: A375 cell lysate

PKM, PKM2 = biological target: T4, PKM, PKM2 (Homo sapiens, UniProt P14618); assay: ATPase profile (ATP acyl phosphate probe); assay type: binding; conditions: PKM2, SEQ ID NO: 161, ATP BS
T4 construct: to get the native cell lysate; endogenous in cells; host or cells: A375 cell lysate

ABCF2 = biological target: T5, ABCF2 (Homo sapiens, UniProt Q9UG63); assay: ATPase profile (ATP acyl phosphate probe); assay type: binding
T5 construct: to get the native cell lysate; host or cells: A375 cell lysate

NARS = biological target: T6, NARS (Homo sapiens, UniProt O43776); assay: ATPase profile (ATP acyl phosphate probe); assay type: binding; conditions: SEQ ID NO: 131, ATP BS
T6 construct: to get the native cell lysate; endogenous in cells; host or cells: A375

ABCB10 = biological target: T7, ABCB10 (Homo sapiens, UniProt Q9NRK6); assay: ATPase profile (ATP acyl phosphate probe); assay type: binding; conditions: ABCB10, SEQ ID NO: 2, ATP BS
T7 construct: to get the native cell lysate; host or cells: A375 cell lysate

RFC5 = biological target: T8, RFC5 (Homo sapiens, UniProt P40937); assay: ATPase profile (ATP acyl phosphate probe); assay type: binding; conditions: RFC5, SEQ ID NO: 186, ATP BS
T8 construct: to get the native cell lysate; endogenous in cells; host or cells: A375 cell lysate

MMAB = biological target: T9, MMAB (Homo sapiens, UniProt Q96EY8); assay: ATPase profile (ATP acyl phosphate probe); assay type: binding; conditions: SEQ ID NO: 124, ATP BS
T9 construct: to get the native cell lysate; endogenous in cells; host or cells: A375

UBA6 = biological target: T10, UBA6 (Homo sapiens, UniProt A0AVT1); assay: ATPase profile (ATP acyl phosphate probe); assay type: binding; conditions: UBA6, SEQ ID NO: 222, ATP BS
T10 construct: to get the native cell lysate; endogenous in cells; host or cells: A375 cell lysate

RBKS = biological target: T11, RBKS (Homo sapiens, UniProt Q9H477); assay: ATPase profile (ATP acyl phosphate probe); assay type: binding; conditions: SEQ ID NO: 182, ATP BS
T11 construct: to get the native cell lysate; endogenous in cells; host or cells: A375 cell lysate

TOR4A = biological target: T12, TOR4A (Homo sapiens, UniProt Q9NXH8); assay: ATPase profile (ATP acyl phosphate probe); assay type: binding; conditions: SEQ ID NO: 207, ATP BS
T12 construct: to get the native cell lysate; endogenous in cells; host or cells: A375 cell lysate

DDX3X = biological target: T13, DDX3X (Homo sapiens, UniProt O00571); assay: ATPase profile (ATP acyl phosphate probe); assay type: binding; conditions: SEQ ID NO: 70, ATP BS
T13 construct: endogenous in cells; host or cells: A375 cell lysate

RFK = biological target: T14, RFK (Homo sapiens, UniProt Q969G6); assay: ATPase profile (ATP acyl phosphate probe); assay type: binding; conditions: SEQ ID NO: 187, ATP BS
T14 construct: to get the native cell lysate; endogenous in cells; host or cells: A375 cell lysate

AK7 = biological target: T15, AK7 (Homo sapiens, UniProt Q96M32); assay: ATPase profile (ATP acyl phosphate probe); assay type: binding; conditions: AK7, SEQ ID NO: 37, ATP BS
T15 construct: to get the native cell lysate; host or cells: A375 cell lysate

PMS2 = biological target: T16, PMS2 (Homo sapiens, UniProt P54278); assay: ATPase profile (ATP acyl phosphate probe); assay type: binding; conditions: PMS2, SEQ ID NO: 162, ATP BS
T16 construct: to get the native cell lysate; endogenous in cells; host or cells: A375 cell lysate

ACACA = biological target: T17, ACACA (Homo sapiens, UniProt Q13085); assay: ATPase profile (ATP acyl phosphate probe); assay type: binding; conditions: SEQ ID NO: 20, ATP BS
T17 construct: to get the native cell lysate; host or cells: A375 cell lysate

HSP90B2P, TRA1 = biological target: T18, HSP90B2P, TRA1 (Homo sapiens, UniProt P14625); assay: ATPase profile (ATP acyl phosphate probe); assay type: binding; conditions: TRA1, SEQ ID NO: 99, ATP BS, read-out: Inhibition (%) by 1 μM Z36-MP5
T18 construct: to get the native cell lysate; endogenous in cells; host or cells: A375

AK3 = biological target: T19, AK3 (Homo sapiens, UniProt Q9UIJ7); assay: ATPase profile (ATP acyl phosphate probe); assay type: binding; conditions: AK3, SEQ ID NO: 34, ATP BS
T19 construct: to get the native cell lysate; host or cells: A375 cell lysate

PSMC4 = PSMC4 (Homo sapiens, UniProt P43686); assay: ATPase profile (ATP acyl phosphate probe); assay type: binding; conditions: PSMC4, SEQ ID NO: 176, ATP BS
AK4 = biological target: T20, AK4 (Homo sapiens, UniProt P27144); assay: ATPase profile (ATP acyl phosphate probe); assay type: binding; conditions: AK4, SEQ ID NO: 35, ATP BS
T20 construct: to get the native cell lysate; host or cells: A375 cell lysate

[1] = system: Mi-2β target gene expression in B16F10 cells; assay: RT-qPCR of Mi-2β target genes in B16F10 cells treated with Z36-MP5; assay type: cell-based, mouse; conditions: 25 μM, 24 hours
Procedure: Z36-MP5 was chosen for further validation and experimental therapeutics in vivo. […] To investigate its cellular inhibitory activity, B16-F10 cells were treated with Z36-MP5 at concentrations ranging from 5 to 100 μM, and the activation of Mi-2β target genes measured by RT-qPCR. Z36-MP5 at 25 μM induced Mi-2β target gene expression including Cxc9, Cxcl10 and Irf1 (FIG. 11c) in B16F10 cells. We also performed the co-culture assays of B16F10 cells with activated Pmel-1 T cells to identify whether Z36-MP5 stimulation can activate T cell mediated cytotoxicity. […] In addition, the pharmacokinetic properties of Z36-MP5 in Sprague-Dawley rats with administration of intraperitoneal injection dose of 1.0 mg/kg.
The total RNA was extracted with QIAGEN RNeasy kit […] for cDNA synthesis with SuperScript II Reverse Transcriptase (Invitrogen). In total, 40 ng cDNA was used for quantitative real-time PCR amplification by TaqMan Gene Expression Master Mix (Thermo Fisher Scientific). The relative transcript levels were normalized with GAPDH expression. The data were calculated with the comparative CT method.

ACLY = biological target: T21, ACLY (Homo sapiens, UniProt P53396); assay: ATPase profile (ATP acyl phosphate probe); assay type: binding
T21 construct: to get the native cell lysate; host or cells: A375 cell lysate

NDUFA10 = biological target: T22, NDUFA10 (Homo sapiens, UniProt O95299); assay: ATPase profile (ATP acyl phosphate probe); assay type: binding; conditions: NDUFA10, SEQ ID NO: 132, ATP BS
T22 construct: to get the native cell lysate; endogenous in cells; host or cells: A375

DDX39 = biological target: T23, DDX39 (Homo sapiens, UniProt O00148); assay: ATPase profile (ATP acyl phosphate probe); assay type: binding; conditions: DDX39, SEQ ID NO: 69, ATP BS
T23 construct: endogenous in cells; host or cells: A375 cell lysate

T1 sequence (Q14566 whole entry): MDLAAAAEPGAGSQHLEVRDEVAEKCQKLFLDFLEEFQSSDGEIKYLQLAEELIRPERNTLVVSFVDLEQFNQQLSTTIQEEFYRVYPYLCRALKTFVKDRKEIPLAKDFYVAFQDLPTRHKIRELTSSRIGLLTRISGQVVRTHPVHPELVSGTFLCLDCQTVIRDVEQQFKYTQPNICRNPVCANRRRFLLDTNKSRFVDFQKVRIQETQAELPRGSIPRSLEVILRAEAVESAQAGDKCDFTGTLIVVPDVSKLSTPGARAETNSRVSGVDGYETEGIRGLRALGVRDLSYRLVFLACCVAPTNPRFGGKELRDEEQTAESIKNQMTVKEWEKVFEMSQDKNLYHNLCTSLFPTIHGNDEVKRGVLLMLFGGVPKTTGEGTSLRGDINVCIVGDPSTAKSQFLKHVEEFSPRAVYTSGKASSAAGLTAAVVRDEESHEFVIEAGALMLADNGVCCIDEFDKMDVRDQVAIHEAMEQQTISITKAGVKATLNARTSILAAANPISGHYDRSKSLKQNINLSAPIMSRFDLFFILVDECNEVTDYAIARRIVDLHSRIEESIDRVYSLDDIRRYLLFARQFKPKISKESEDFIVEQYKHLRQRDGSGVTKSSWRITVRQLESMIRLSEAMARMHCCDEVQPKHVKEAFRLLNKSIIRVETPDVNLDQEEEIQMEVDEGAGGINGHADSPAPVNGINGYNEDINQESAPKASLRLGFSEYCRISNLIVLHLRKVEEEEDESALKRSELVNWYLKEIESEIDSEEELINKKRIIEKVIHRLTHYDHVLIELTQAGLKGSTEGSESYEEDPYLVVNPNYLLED
T1 sequence (P33991 whole entry): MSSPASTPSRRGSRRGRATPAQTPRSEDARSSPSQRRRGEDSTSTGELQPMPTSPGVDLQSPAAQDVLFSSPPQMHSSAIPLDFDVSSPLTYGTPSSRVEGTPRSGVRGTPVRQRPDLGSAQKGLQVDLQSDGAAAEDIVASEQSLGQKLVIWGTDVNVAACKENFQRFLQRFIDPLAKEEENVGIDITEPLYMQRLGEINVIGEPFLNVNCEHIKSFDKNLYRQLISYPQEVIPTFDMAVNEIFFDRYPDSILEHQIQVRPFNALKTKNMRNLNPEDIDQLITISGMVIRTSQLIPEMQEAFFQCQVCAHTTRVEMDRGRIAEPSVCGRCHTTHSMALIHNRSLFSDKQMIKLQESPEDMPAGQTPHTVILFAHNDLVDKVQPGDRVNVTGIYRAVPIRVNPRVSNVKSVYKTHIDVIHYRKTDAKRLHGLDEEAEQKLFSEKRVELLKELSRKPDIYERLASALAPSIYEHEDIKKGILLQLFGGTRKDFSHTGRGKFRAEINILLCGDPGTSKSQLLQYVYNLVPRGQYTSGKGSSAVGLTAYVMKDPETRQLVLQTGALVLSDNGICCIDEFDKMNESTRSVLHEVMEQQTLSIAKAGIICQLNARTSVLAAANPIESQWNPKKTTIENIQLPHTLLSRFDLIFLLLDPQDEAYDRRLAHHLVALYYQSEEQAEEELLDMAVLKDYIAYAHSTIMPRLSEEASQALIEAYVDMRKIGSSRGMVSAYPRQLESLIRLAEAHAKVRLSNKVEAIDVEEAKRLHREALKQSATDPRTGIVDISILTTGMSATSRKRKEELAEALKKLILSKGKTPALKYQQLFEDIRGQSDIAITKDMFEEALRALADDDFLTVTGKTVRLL
T1 sequence (P49736 whole entry partner): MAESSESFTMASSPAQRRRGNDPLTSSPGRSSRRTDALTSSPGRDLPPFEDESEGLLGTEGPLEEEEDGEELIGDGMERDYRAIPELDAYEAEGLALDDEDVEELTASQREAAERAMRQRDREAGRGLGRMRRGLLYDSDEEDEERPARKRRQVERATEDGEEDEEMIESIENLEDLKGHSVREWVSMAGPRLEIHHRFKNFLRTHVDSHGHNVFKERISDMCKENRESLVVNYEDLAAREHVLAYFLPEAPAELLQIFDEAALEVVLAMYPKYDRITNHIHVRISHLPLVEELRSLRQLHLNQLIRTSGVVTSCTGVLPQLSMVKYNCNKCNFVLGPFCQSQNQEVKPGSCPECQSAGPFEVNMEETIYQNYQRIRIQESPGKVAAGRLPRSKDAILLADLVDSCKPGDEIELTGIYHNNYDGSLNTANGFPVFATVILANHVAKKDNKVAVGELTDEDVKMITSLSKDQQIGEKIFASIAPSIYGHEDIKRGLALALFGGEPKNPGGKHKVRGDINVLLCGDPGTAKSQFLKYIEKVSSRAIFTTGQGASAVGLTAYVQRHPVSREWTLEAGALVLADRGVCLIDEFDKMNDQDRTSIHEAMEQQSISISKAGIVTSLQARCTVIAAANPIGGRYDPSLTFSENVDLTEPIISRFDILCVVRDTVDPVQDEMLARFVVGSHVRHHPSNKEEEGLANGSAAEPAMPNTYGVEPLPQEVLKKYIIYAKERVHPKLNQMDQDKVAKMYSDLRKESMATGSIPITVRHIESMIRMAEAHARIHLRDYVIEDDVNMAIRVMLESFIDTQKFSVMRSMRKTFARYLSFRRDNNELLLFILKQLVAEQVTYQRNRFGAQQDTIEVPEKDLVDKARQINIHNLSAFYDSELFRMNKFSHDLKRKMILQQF
T1 sequence (P33993 whole entry partner): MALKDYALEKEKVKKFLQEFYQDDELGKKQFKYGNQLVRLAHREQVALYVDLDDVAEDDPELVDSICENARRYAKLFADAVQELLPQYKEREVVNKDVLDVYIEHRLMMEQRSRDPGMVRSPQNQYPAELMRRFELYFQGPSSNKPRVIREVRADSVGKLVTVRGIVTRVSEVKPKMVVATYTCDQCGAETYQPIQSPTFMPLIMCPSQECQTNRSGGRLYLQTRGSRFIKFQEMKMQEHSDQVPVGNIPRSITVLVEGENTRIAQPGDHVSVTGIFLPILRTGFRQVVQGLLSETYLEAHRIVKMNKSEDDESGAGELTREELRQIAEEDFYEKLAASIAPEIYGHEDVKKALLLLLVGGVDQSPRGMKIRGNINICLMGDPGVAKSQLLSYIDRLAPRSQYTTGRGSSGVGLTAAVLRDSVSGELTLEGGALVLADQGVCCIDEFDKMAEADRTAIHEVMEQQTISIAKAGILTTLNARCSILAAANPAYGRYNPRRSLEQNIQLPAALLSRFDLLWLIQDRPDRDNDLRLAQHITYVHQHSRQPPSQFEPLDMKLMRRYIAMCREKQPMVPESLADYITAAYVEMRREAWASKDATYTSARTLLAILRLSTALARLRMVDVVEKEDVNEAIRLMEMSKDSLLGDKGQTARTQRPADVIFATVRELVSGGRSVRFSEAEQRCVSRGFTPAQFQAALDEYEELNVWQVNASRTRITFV
T1 sequence (P25205 whole entry partner): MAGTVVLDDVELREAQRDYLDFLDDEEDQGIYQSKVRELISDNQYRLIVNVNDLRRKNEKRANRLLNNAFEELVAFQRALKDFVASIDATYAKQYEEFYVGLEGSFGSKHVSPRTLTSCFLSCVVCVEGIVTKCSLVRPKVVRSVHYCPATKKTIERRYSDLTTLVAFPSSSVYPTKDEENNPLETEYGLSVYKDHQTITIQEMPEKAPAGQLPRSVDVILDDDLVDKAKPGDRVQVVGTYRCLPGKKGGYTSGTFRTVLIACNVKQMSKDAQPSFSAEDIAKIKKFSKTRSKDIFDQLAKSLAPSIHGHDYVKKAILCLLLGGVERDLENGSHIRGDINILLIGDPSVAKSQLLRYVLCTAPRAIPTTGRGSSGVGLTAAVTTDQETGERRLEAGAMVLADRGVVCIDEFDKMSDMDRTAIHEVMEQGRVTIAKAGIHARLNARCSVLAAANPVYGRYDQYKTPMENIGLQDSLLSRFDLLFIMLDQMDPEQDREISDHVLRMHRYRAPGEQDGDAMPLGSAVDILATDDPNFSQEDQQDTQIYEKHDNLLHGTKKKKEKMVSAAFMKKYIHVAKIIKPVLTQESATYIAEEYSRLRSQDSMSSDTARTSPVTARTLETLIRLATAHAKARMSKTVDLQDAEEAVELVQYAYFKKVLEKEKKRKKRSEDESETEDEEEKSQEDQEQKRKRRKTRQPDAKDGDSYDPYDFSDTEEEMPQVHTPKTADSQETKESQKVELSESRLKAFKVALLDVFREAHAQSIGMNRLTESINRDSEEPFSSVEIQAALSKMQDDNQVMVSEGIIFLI
T1 sequence (P33992 whole entry partner): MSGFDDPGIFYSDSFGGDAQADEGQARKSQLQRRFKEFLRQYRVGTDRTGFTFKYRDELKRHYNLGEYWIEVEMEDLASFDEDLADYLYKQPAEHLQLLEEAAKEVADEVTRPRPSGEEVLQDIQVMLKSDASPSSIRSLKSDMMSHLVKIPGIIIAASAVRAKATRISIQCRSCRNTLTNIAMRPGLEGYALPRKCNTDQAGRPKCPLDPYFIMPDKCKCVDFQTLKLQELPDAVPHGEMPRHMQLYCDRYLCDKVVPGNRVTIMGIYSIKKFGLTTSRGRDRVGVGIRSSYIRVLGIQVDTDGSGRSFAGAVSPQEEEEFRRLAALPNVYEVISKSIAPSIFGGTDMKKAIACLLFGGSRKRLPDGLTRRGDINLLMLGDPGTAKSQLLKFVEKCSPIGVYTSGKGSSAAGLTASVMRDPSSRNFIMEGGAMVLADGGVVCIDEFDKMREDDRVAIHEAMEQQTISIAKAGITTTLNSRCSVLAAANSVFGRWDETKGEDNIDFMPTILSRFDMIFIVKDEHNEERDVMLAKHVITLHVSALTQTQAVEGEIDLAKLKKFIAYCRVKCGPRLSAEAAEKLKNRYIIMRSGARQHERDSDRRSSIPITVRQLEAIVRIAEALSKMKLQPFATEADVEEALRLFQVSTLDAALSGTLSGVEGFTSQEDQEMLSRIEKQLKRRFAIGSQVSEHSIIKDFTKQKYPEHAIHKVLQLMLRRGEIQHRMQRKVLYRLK
T19 sequence (Q9UIJ7 whole entry): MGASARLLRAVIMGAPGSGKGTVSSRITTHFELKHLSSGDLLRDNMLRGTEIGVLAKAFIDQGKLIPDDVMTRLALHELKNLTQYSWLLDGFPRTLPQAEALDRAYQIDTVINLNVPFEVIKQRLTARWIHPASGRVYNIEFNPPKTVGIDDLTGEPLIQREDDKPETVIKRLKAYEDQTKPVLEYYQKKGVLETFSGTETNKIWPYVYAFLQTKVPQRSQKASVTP

Compound: Cn1c(=O)[nH]c2ccc(-c3cccc(C(=O)NC4CCn5ccnc5C4)c3)cc21 (stereo not shown) [Z36-MP5, 3-(3-methyl-2-oxo-2,3-dihydro-1H-benzo[d]imidazol-5-yl)-N-(5,6,7,8-tetrahydroimidazo[1,2-a]pyridin-7-yl)benzamide]
- inhibition at 1 µM (MCM6; MCM6, SEQ ID NO: 119, ATP BS): -5.23%
- inhibition at 1 µM (MCM6; MCM6, SEQ ID NO: 120, ATP BS): -2.54%
- Inhibition (%) by 1 μM Z36-MP5 (EPRS): 0.78%
- Inhibition (%) by 1 μM Z36-MP5 (ABCC2): 4.09%
- Inhibition (%) by 1 μM Z36-MP5 (PKM, PKM2): 28.24%
- Inhibition (%) by 1 μM Z36-MP5 (ABCF2; ABCF2, SEQ ID NO: 17, ATP BS): −7.92%
- Inhibition (%) by 1 μM Z36-MP5 (ABCF2; ABCF2, SEQ ID NO: 18, ATP BS): 26.88%
- Inhibition (%) by 1 μM Z36-MP5 (NARS): 2.36%
- Inhibition (%) by 1 μM Z36-MP5 (ABCB10): −6.14%
- Inhibition (%) by 1 μM Z36-MP5 (RFC5): 2.11%
- Inhibition (%) by 1 μM Z36-MP5 (MMAB): −4.08%
- Inhibition (%) by 1 μM Z36-MP5 (UBA6): 3.60%
- Inhibition (%) by 1 μM Z36-MP5 (RBKS): −1.64%
- Inhibition (%) by 1 μM Z36-MP5 (TOR4A): 5.38%
- Inhibition (%) by 1 μM Z36-MP5 (DDX3X): 11.22%
- Inhibition (%) by 1 μM Z36-MP5 (RFK): 10.06%
- Inhibition (%) by 1 μM Z36-MP5 (AK7): 13.86%
- Inhibition (%) by 1 μM Z36-MP5 (PMS2): 3.36%
- Inhibition (%) by 1 μM Z36-MP5 (ACACA): 6.21%
- inhibition at 1 µM (HSP90B2P, TRA1): -6.72%
- Inhibition (%) by 1 μM Z36-MP5 (AK3): 19.58%
- Inhibition (%) by 1 μM Z36-MP5 (PSMC4): 13.36%
- Inhibition (%) by 1 μM Z36-MP5 (AK4): −9.19%
- Mi-2β target gene expression including Cxc9, Cxcl10 and Irf1 [1]: induced
- Inhibition (%) by 1 μM Z36-MP5 (ACLY; SEQ ID NO: 22, ATP BS): −6.87%
- Inhibition (%) by 1 μM Z36-MP5 (ACLY; SEQ ID NO: 23, ATP BS): 2.00%
- Inhibition (%) by 1 μM Z36-MP5 (NDUFA10): 14.09%
- Inhibition (%) by 1 μM Z36-MP5 (DDX39): −8.90%
